Reference: patent US8778970B2, “Benzyl piperidine compound” (Dainippon Sumitomo Pharma Co., Ltd, priority 2009, dated 2014)

Columns and labels:
[1] = molecular target: human serotonin transporter (h-SERT) (Homo sapiens (Human), UniProt P31645); experiment: [3H] citalopram binding screening test for inhibitory effect on human serotonin reuptake; settings: h-SERT/CHO membrane preparation, [3H] citalopram approx. 2 nM; read-out: h-SERT binding inhibition constant (Ki)
Experimental: Screening Test Using [^3H] Citalopram Binding for Evaluating Inhibitory Effect on Human Serotonin Reuptake
1-1 Cells Used and Preparation of Membrane Preparation
CHO cells expressing a human serotonin transporter (h-SERT) (h-SERT/CHO) were used in the experiment. The cells were cultured in F12 containing 10% FCS, 500 μg/ml Geneticin and 100 U/ml penicillin-100 μg/ml streptomycin (all manufactured by Sigma-Aldrich Corp.) in a 5% CO2 incubator. The cells dissociated and collected therefrom using SERT buffer (50 mM Tris-HCl containing 120 mM NaCl and 5 mM KCl (pH=7.4)) were homogenized using a Teflon (R) homogenizer and then centrifuged (50,000×g, 30 min, 4° C.). The precipitate was resuspended in an appropriate amount of SERT buffer and stored at −80° C. until use. The amount of the protein in the membrane preparation were determined using bovine serum albumin (manufactured by Sigma-Aldrich Corp.) as standards and Dye Reagent Concentrate (manufactured by Bio-Rad Laboratories, Inc.).
1-2 Receptor Binding Experiment
[^3H] citalopram binding was assayed according to the method of Owens et al. [Owens M. J. et al., J. Pharm. […] Specifically, 50 μl of [^3H] citalopram (final concentration: approximately 2 nM) diluted with SERT buffer, 149 μl of the h-SERT/CHO membrane preparation (40 μg/well in terms of the amount of the protein), and 1 μl of a solution of a test drug dissolved in DMSO were added to prepare 200 μl in total of a solution. This solution was reacted at room temperature for 60 minutes and then immediately suction-filtered at a low pressure using a glass fiber filter paper coated with a 0.05% aqueous polyethyleneimine solution. The glass fiber filter paper was washed twice with 250 μl of SERT buffer and then transferred to a glass vial containing 4 ml of ACS-II (manufactured by GE Healthcare (formerly Amersham Biosciences)). Radioactivity remaining on the filter paper was measured using a liquid scintillation counter. The nonspecific binding of [^3H] citalopram was defined as a binding amount in the presence of 1 μM clomipramine.
The smaller numeric value of the h-SERT binding inhibition constant Ki means a higher inhibitory effect on human serotonin reuptake.

[2] = molecular target: human serotonin 1A receptor (h-5-HT1A) (Homo sapiens (Human), UniProt P08908); experiment: [3H] 8-OH-DPAT binding test for affinity for human serotonin 1A receptor; settings: h-5-HT1A/CHO membrane preparation, [3H] 8-OH-DPAT 0.5 nM; read-out: h-5-HT1A binding inhibition constant (Ki)
human serotonin 1A receptor (h-5-HT1A), sequence (P08908 whole entry): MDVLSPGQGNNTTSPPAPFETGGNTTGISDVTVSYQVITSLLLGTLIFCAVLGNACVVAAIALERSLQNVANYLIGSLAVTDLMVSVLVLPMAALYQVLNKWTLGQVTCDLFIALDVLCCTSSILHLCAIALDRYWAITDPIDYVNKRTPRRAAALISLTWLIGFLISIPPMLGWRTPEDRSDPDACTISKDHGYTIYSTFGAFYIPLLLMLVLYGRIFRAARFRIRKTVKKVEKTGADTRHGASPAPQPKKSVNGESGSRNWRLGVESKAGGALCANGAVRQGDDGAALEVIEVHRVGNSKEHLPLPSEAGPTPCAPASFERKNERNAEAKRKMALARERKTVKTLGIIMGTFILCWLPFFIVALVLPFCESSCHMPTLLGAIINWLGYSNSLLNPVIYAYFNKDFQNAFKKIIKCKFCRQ
Experimental: [^3H] 8-OH-DPAT Binding Test for Evaluating Affinity for Human Serotonin 1A Receptor
2-1 Cells Used and Preparation of Membrane Preparation
CHO cells expressing a human serotonin 1A receptor (h-5-HT1A) (h-5-HT1A/CHO) were used in the experiment. The cells were cultured in F12 containing 10% FCS, 500 μg/ml Geneticin and 100 U/ml penicillin-100 μg/ml streptomycin (all manufactured by Sigma-Aldrich Corp.) in a 5% CO2 incubator. Membrane preparation were prepared according to the method of Yabuuchi et al.^3). Specifically, the cells dissociated and collected therefrom using 50 mM Tris-HCl (pH=7.4) were homogenized using a Teflon® homogenizer and then centrifuged (48,000×g, 20 min, 4° C.). The precipitate was resuspended in an appropriate amount of 50 mM Tris-HCl (pH=7.4) and stored at −80° C. until use. The amount of the protein in the membrane preparation were determined using bovine serum albumin (manufactured by Sigma-Aldrich Corp.) as standards and Dye Reagent Concentrate (manufactured by Bio-Rad Laboratories, Inc.).
2-2 Receptor Binding Experiment
50 μl of [^3H] 8-OH-DPAT (final concentration: 0.5 nM), 1 μl of a test drug solution, and 149 μl of the h-5-HT1A/CHO membrane preparation (25 μg/well in terms of the amount of the protein) were added into a buffer containing 50 mM Tris-HCl (pH=7.4) and 4 mM CaCl2, and 200 μl in total of the reaction solution was used in the assay. The reaction solution was reacted at room temperature for 30 minutes and then immediately suction-filtered at a low pressure using a glass fiber filter paper. The glass fiber filter paper was washed twice with 250 μl of 50 mM Tris-HCl (pH=7.4) and then added to a counting vial containing 4 ml of ACS-II (manufactured by GE Healthcare (formerly Amersham Biosciences)). Receptor binding-derived radioactivity remaining on the filter paper was measured using a liquid scintillation counter. The nonspecific binding was defined as a binding amount in the presence of 10 μM 8-OH-DPAT.
8-OH-DPAT. Moreover, the Kd value was the binding dissociation constant of [^3H] […] The smaller numeric value of the h-5-HT1A binding inhibition constant Ki means higher affinity for human serotonin 1A receptors.

CYP2D6 [3] = molecular target: T1, CYP2D6 (Homo sapiens (Human), UniProt P10635); experiment: CYP2D6 inhibition screening test (bufuralol 1'-hydroxylation, pooled human liver microsomes); format: in vitro ADME; settings: substrate bufuralol, 37° C. 10 min
T1 sequence (P10635 whole entry): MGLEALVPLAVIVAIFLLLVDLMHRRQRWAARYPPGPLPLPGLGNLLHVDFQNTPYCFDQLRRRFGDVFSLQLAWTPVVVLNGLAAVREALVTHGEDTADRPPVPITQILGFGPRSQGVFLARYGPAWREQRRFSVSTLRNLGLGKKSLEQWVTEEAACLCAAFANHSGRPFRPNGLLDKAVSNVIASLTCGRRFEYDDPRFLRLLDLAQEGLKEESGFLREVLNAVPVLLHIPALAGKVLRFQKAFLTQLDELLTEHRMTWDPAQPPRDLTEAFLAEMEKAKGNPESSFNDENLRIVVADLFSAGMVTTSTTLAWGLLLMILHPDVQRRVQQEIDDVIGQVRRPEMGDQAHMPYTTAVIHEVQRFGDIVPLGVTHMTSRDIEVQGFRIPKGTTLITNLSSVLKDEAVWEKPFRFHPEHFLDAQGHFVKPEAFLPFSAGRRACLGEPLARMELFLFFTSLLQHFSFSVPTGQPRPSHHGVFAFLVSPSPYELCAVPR
Experimental: CYP2D6 Inhibition Screening Test
Bufuralol hydrochloride was purchased from Toronto Research Chemicals Inc., and pooled human liver microsomes were purchased from Xenotech, LLC.
Bufuralol hydrochloride was dissolved in DMSO at a concentration of 1.0 mM and then diluted 20-fold with distilled water.
• 1. A 10 mM solution of a test drug in DMSO was serially diluted with DMSO at four 5-fold dilutions to prepare 10, 2, 0.4 and 0.08 mM DMSO solutions. • 2. Each test drug solution of step 1 or DMSO was diluted 160-fold with the human liver microsome solution and dispensed at a concentration of 80 μL/well to a microplate. • 3. 10 μL of the substrate solution and 10 μL of the β-NADPH solution were added to each well of step 2, and the mixture was incubated at 37° C. for 10 min. • 4. The reaction was terminated by the addition of 300 μL of methanol. • 5. The reaction mixture was filtered and analyzed by LC-MS/MS. 3-4 Quantification and Calculation
The amount of 1′-hydroxybufuralol formed was determined by LC-MS/MS, and this value was used as the metabolic activity value of CYP2D6 in each well. The residual activity of each sample-supplemented group was determined by comparison with the activity in the well containing DMSO used as a test drug. IC50 values in CYP2D6 inhibition were determined from the test drug concentrations. […] The larger numeric value of IC50 in CYP2D6 inhibition means weaker CYP2D6 inhibition.

CYP2D6 [4] = molecular target: T1, CYP2D6; experiment: Screening test on contribution ratio of CYP2D6 in human liver microsomal metabolism; format: in vitro ADME; settings: 1 mg/mL human liver microsomes, 1 μM test substance, with/without 4 μM quinidine; values marked *) are reference values due to relative stability
Experimental: Screening Test on Contribution Ratio of CYP2D6 in Human Liver Microsomal Metabolism
0.2 mL of a 50 mM potassium phosphate buffer (pH 7.4) containing 3 mM (final concentration) NADPH (manufactured by Oriental Yeast Co., Ltd.), 1 mg/mL human liver microsomes (manufactured by Xenotech, LLC) and 1 μM test substance was warmed in a water bath at 37° C. for metabolic reaction. After 15- or 30-minute reaction, the reaction was terminated by the addition of a 3-fold volume of methanol with respect to the reaction solution and subsequent stirring. This reaction solution was centrifuged to precipitate proteins. Then, the supernatant was collected and subjected to LC-MS/MS analysis. The results were analyzed as follows:
The test substance was quantified, and time-dependent change in its residual amount was logarithmically plotted. The rate of metabolism was calculated from the slope.
The ratio of the rate of metabolism in the presence of quinidine added at 4 μM (final concentration) to the reaction solution to that in the absence of quinidine was used as the contribution ratio of enzymes other than CYP2D6. The remaining portion was used as the contribution ratio of CYP2D6. Specifically, it was calculated according to the formula: Contribution ratio (%)={1−(Rate of metabolism [in the presence of quinidine]/Rate of metabolism [in the absence of quinidine])}×100 The smaller numeric value of the contribution ratio of CYP2D6 means the small contribution of CYP2D6.

human serotonin transporter (h-SERT), sequence (P31645 whole entry): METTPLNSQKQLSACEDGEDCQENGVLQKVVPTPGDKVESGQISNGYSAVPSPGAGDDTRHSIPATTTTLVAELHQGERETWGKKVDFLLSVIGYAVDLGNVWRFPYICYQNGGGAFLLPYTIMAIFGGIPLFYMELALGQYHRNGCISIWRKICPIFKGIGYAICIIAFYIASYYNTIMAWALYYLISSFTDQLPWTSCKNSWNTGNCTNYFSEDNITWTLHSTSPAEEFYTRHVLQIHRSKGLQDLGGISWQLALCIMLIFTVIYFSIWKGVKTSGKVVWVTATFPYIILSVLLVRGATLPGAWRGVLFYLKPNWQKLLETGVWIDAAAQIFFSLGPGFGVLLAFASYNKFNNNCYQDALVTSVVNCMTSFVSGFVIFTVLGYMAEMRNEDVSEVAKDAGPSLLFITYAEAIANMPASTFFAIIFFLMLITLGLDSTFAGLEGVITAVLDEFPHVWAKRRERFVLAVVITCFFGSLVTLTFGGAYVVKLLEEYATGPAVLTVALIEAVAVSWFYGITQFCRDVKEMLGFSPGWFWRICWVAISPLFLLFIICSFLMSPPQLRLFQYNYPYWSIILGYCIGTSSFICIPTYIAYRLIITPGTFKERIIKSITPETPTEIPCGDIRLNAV

## COCCOc1cc(CC2CCN(CCc3ccc4occc(=O)c4c3)CC2)ccc1Br.Cl [Compound 5-6, 6-(2-{4-[4-Bromo-3-(2-methoxyethoxy)benzyl]piperidin-1-yl}ethyl)-4H -chromen-4-one hydrochloride]
[1]
  Ki: 0.27 nM
[2]
  Ki: 2 nM
CYP2D6 [3]
  IC50: 28300 nM
CYP2D6 [4]
  CYP2D6 contribution ratio: 31%

## Cl.O=c1ccoc2ccc(CCN3CCC(Cc4ccc(Br)c(OCCO)c4)CC3)cc12 [Compound 5-7, 6-(2-{4-[4-Bromo-3-(2-hydroxyethoxy)benzyl]piperidin-1-yl}ethyl)-4H-chromen-4-one hydrochloride]
[1]
  Ki: 3.5 nM
[2]
  Ki: 2.1 nM
CYP2D6 [3]
  IC50: 34900 nM
CYP2D6 [4]
  CYP2D6 contribution ratio: 9.2*) %

## O=C1CCOc2ccc(CCN3CCC(Cc4ccc(Br)c(O)c4)CC3)cc21 [Compound 5-8, 6-{2-[4-(4-Bromo-3-hydroxybenzyl)piperidin-1-yl]ethyl}-2,3-dihydro-4H-chromen-4-one]
[1]
  Ki: 6.5 nM
[2]
  Ki: 1.3 nM
CYP2D6 [3]
  IC50: 9900 nM
CYP2D6 [4]
  CYP2D6 contribution ratio: 98%

## O=c1ccoc2ccc(CCN3CCC(Cc4ccc(Br)c(O)c4)CC3)cc12 [Compound 5-9, 6-{2-[4-(4-Bromo-3-hydroxybenzyl)piperidin-1-yl]ethyl}-4H-chromen-4-one]
[1]
  Ki: 1.7 nM
[2]
  Ki: 0.27 nM
CYP2D6 [3]
  IC50: 16800 nM
CYP2D6 [4]
  CYP2D6 contribution ratio: 46%

## COCCOc1cc(CC2CCN(CCc3ccc4occ(O)c(=O)c4c3)CC2)ccc1Br [Compound 5-14, 6-(2-{4-[4-Bromo-3-(2-methoxyethoxy)benzyl]piperidin-1-yl}ethyl)-3-hydroxy-4H-chromen-4-one]
[1]
  Ki: 0.88 nM
[2]
  Ki: 2.5 nM
CYP2D6 [3]
  IC50: 37600 nM
CYP2D6 [4]
  CYP2D6 contribution ratio: 8%

## Oc1cc(CC2CCN(CCc3ccc4c(c3)C(O)CCO4)CC2)ccc1Br (stereo not drawn) [Compound 5-15, 6-{2-[4-(4-Bromo-3-hydroxybenzyl)piperidin-1-yl]ethyl}-3,4-dihydro-2H-chromen-4-ol]
[1]
  Ki: 41 nM
[2]
  Ki: 8.5 nM
CYP2D6 [3]
  IC50: 40300 nM
CYP2D6 [4]
  CYP2D6 contribution ratio: 0*) %
